Results reported in patent publication US12174198B2, “Methods of characterizing condensate-associated characteristics of compounds and uses thereof” (Dewpoint Therapeutics, Inc., priority 2019, dated 2024).

Assays:
Assay type in all cases: physicochemical
[1] = target: T1, FUS-SNAP condensates (Homo sapiens, UniProt P35637); test: Fluorescence imaging of dye partitioning in FUS-SNAP condensates (I-in, I-out); settings: for Ratio of intensity inside:outside FUS-SNAP Condensates Day 1 / Ratio of intensity inside:outside FUS-SNAP Condensates Day 2 / Ratio of intensity inside:outside FUS-SNAP Condensates Average: I-in:I-out; for Ratio of intensity inside:outside FUS-SNAP Condensates Day 1 / Ratio of intensity inside:outside FUS-SNAP Condensates Day 2 / Ratio of intensity inside:outside FUS-SNAP Condensates Average / Intensity Inside with Dye Average / Intensity Inside with Dye 1 / Intensity Inside with Dye 2 / Intensity Inside with Dye 3 / Intensity Outside with Dye Average / Intensity Outside with Dye 1 / Intensity Outside with Dye 2 / Intensity Outside with Dye 3: 10 μM dye; for Ratio of intensity inside:outside FUS-SNAP Condensates Average: average of two days; for Intensity Inside with Dye Average / Intensity Inside with Dye 1 / Intensity Inside with Dye 2 / Intensity Inside with Dye 3 / Intensity Inside Dye-No Dye: inside FUS-SNAP condensate; for Intensity Inside with Dye Average / Intensity Inside with Dye 1 / Intensity Inside with Dye 2 / Intensity Inside with Dye 3 / Intensity Outside with Dye Average / Intensity Outside with Dye 1 / Intensity Outside with Dye 2 / Intensity Outside with Dye 3: 5 μM protein; for Intensity Inside with Dye Average / Intensity Outside with Dye Average: average of three images; for Intensity Inside with Dye Average / Intensity Inside with Dye 1 / Intensity Inside with Dye 2 / Intensity Inside with Dye 3 / Intensity Inside Dye-No Dye / Intensity Outside with Dye Average / Intensity Outside with Dye 1 / Intensity Outside with Dye 2 / Intensity Outside with Dye 3 / Intensity Outside (Dye-No Dye): one day of experiments; for Intensity Inside with Dye 1 / Intensity Outside with Dye 1: image 1; for Intensity Inside with Dye 2 / Intensity Outside with Dye 2: image 2; for Intensity Inside with Dye 3 / Intensity Outside with Dye 3: image 3; for Intensity Inside Dye-No Dye / Intensity Outside (Dye-No Dye): background corrected; for Intensity Outside with Dye Average / Intensity Outside with Dye 1 / Intensity Outside with Dye 2 / Intensity Outside with Dye 3 / Intensity Outside (Dye-No Dye): outside FUS-SNAP condensate
T1 sequence (P35637 1-526): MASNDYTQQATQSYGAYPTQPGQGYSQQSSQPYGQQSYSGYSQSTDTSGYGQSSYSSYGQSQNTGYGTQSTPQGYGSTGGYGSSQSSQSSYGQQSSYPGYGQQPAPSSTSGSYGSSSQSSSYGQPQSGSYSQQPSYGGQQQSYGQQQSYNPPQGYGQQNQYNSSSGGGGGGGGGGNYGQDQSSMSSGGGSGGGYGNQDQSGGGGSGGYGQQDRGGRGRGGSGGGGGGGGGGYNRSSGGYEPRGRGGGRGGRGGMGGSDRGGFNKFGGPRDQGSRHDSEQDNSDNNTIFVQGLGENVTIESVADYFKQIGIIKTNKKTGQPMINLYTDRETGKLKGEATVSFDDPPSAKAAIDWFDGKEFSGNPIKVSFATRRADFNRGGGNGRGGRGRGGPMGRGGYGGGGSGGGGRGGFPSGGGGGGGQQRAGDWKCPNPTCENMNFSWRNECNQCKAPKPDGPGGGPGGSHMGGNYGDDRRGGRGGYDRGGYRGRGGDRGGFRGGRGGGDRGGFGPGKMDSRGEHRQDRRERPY
Summary of the method: (§1)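 Partitioning read by spinning-disk confocal imaging (60× oil, dye-specific exposure 1-1000 ms) of condensates formed from 5 μM protein (FUS-SNAP or untagged PGL-3) plus 10 μM dye, 75 mM KCl, 1% DMSO, pH 7.25. Background-subtracted intensities inside and beside one condensate per image, three images averaged.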

[2] = target: T2, PGL-3 condensates (Caenorhabditis elegans, UniProt G5EBV6); test: Fluorescence imaging of dye partitioning in PGL-3 condensates (I-in, I-out); settings: for Ratio of intensity inside:outside PGL-3 Condensates Day 1 / Ratio of intensity inside:outside PGL-3 Condensates Day 2 / Ratio of intensity inside:outside PGL-3 Condensates Average: I-in:I-out; for Ratio of intensity inside:outside PGL-3 Condensates Day 1 / Ratio of intensity inside:outside PGL-3 Condensates Day 2 / Ratio of intensity inside:outside PGL-3 Condensates Average / Intensity Inside with Dye Average / Intensity Inside with Dye 1 / Intensity Inside with Dye 2 / Intensity Inside with Dye 3 / Intensity Outside with Dye Average / Intensity Outside with Dye 1 / Intensity Outside with Dye 2 / Intensity Outside with Dye 3: 10 μM dye; for Ratio of intensity inside:outside PGL-3 Condensates Average: average of two days; for Intensity Inside with Dye Average / Intensity Inside with Dye 1 / Intensity Inside with Dye 2 / Intensity Inside with Dye 3 / Intensity Inside Dye-No Dye: inside PGL-3 condensate; for Intensity Inside with Dye Average / Intensity Inside with Dye 1 / Intensity Inside with Dye 2 / Intensity Inside with Dye 3 / Intensity Outside with Dye Average / Intensity Outside with Dye 1 / Intensity Outside with Dye 2 / Intensity Outside with Dye 3: 5 μM protein; for Intensity Inside with Dye Average / Intensity Outside with Dye Average: average of three images; for Intensity Inside with Dye Average / Intensity Inside with Dye 1 / Intensity Inside with Dye 2 / Intensity Inside with Dye 3 / Intensity Inside Dye-No Dye / Intensity Outside with Dye Average / Intensity Outside with Dye 1 / Intensity Outside with Dye 2 / Intensity Outside with Dye 3 / Intensity Outside (Dye-No Dye): one day of experiments; for Intensity Inside with Dye 1 / Intensity Outside with Dye 1: image 1; for Intensity Inside with Dye 2 / Intensity Outside with Dye 2: image 2; for Intensity Inside with Dye 3 / Intensity Outside with Dye 3: image 3; for Intensity Inside Dye-No Dye / Intensity Outside (Dye-No Dye): background corrected; for Intensity Outside with Dye Average / Intensity Outside with Dye 1 / Intensity Outside with Dye 2 / Intensity Outside with Dye 3 / Intensity Outside (Dye-No Dye): outside PGL-3 condensate
T2 sequence (G5EBV6 1-693): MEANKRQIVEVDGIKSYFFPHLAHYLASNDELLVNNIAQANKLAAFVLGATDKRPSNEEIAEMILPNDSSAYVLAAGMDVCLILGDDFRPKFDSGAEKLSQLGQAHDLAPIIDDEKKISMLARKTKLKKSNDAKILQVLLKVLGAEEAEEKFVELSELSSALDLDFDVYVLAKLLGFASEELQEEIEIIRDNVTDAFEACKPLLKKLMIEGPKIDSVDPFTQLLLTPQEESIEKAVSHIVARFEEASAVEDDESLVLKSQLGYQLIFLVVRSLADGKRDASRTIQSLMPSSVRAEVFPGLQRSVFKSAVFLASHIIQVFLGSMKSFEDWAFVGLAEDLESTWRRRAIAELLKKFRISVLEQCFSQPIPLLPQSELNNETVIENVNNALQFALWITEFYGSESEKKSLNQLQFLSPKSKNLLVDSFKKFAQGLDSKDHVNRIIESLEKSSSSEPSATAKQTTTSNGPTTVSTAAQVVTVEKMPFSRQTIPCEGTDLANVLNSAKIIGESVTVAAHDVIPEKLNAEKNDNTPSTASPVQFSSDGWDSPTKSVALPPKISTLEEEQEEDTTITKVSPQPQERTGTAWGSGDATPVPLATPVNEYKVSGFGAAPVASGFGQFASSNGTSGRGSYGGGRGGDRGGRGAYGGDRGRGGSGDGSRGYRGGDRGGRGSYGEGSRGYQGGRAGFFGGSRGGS
Summary of the method: as §1

[3] = test system: FUS-SNAP condensates versus PGL-3 condensates; test: Condensate preference: ratio of FUS-SNAP I-in:I-out to PGL-3 I-in:I-out; settings: average FUS-SNAP I-in:I-out divided by average PGL-3 I-in:I-out
Experimental: The ratios of the average intensity measured in the target condensates and outside of the target condensates were calculated by dividing I-in by I-out, although dividing I-out by I-in could also have been used. The I-in:I-out ratios determined from the two different days of experiments were then averaged. The average I-in:I-out ratios for FUS-SNAP condensates are shown in FIG. 3 and the average I-in:I-out ratios for PGL-3 condensates are shown in FIG. 4. The standard deviation between the two experiments is represented by the error bars in FIG. 3 and FIG. 4.

Row | Compound | Ratio of intensity inside:outside FUS-SNAP Condensates Day 1 [1] | Ratio of intensity inside:outside FUS-SNAP Condensates Day 2 [1] | Ratio of intensity inside:outside FUS-SNAP Condensates Average [1] | Intensity Inside with Dye Average [1] | Intensity Inside with Dye 1 [1] | Intensity Inside with Dye 2 [1] | Intensity Inside with Dye 3 [1] | Intensity Inside Dye-No Dye [1] | Intensity Outside with Dye Average [1] | Intensity Outside with Dye 1 [1] | Intensity Outside with Dye 2 [1] | Intensity Outside with Dye 3 [1] | Intensity Outside (Dye-No Dye) [1] | Ratio of intensity inside:outside PGL-3 Condensates Day 1 [2] | Ratio of intensity inside:outside PGL-3 Condensates Day 2 [2] | Ratio of intensity inside:outside PGL-3 Condensates Average [2] | Intensity Inside with Dye Average [2] | Intensity Inside with Dye 1 [2] | Intensity Inside with Dye 2 [2] | Intensity Inside with Dye 3 [2] | other results
1 | O=C(CCCC[C@@H]1SCC2NC(=O)NC21)NCCNC(=O)c1ccc(-c2c3ccc(=O)cc-3oc3ccc(O)cc23)c(C(=O)O)c1 (stereo partly shown) [Dye 13, Biotin-4-Fluorescein] | 2.1 | 2.1 | 2.1 | 4669.4 | 4600.2 | 4189.8 | 5218.3 | 4534.2 | 2242.3 | 2286.6 | 2244.6 | 2195.6 | 2138.2 | 1.1 | 1.1 | 1.1 | 3038.9 | 2939.4 | 3141.8 | 3035.4 | Intensity Inside Dye-No Dye [2]: 2892.4; Intensity Outside with Dye Average [2]: 2837.5; Intensity Outside with Dye 1 [2]: 2781.8; Intensity Outside with Dye 2 [2]: 2905.7; Intensity Outside with Dye 3 [2]: 2825.1; Intensity Outside (Dye-No Dye) [2]: 2732.2; Ratio of FUS-SNAP:PGL-3 [3]: 2.0
2 | Polysucrose 40-fluorescein isothiocyanate conjugate [Dye 10] | 1.0 | 1.1 | 1.1 | 5756.6 | 6139.7 | 6105.5 | 5024.6 | 5621.4 | 5505.3 | 5878.5 | 5846.2 | 4791.0 | 5401.2 | 1.0 | 0.9 | 0.9 | 5674.9 | 5747.5 | 6281.4 | 4996.0 | Enrichment of dye in the condensate (fluorescent images) ([1]; FIG. 1, exemplary images of Example 2, condensate type not stated): not enriched in the condensate; Intensity Inside Dye-No Dye [2]: 5528.4; Intensity Outside with Dye Average [2]: 5893.8; Intensity Outside with Dye 1 [2]: 5900.4; Intensity Outside with Dye 2 [2]: 6581.6; Intensity Outside with Dye 3 [2]: 5199.5; Intensity Outside (Dye-No Dye) [2]: 5788.5; Ratio of FUS-SNAP:PGL-3 [3]: 1.1
